Data as given in PMC5750218, “Protein-inspired antibiotics active against vancomycin- and daptomycin-resistant bacteria” (Nature Communications, 2018).
Converted amounts (≈) assume the structure as drawn. “And” between values parts separate entries of the source, which are not always exact repeats. Equal values may be shown once. Read-outs that look alike come from different tables or passages of the source.

Tests used:
[1] = tested on: Methicillin-resistant S. aureus ATCC 43300; assay: microbe, parasite or virus in culture
How it was run: (§1)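 Broth microdilution in Mueller Hinton broth with twofold serial dilutions of compound from 8 to 0.003 µg mL^−1.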

[2] = tested on: Vancomycin-resistant (VanA) Enterococcus faecium ATCC 51559; assay: microbe, parasite or virus in culture
How it was run: as §1

[3] = tested on: Vancomycin-intermediate S. aureus NRS1; assay: microbe, parasite or virus in culture
How it was run: as §1

[4] = tested on: Multi-drug-resistant S. pneumoniae ATCC 700677; assay: microbe, parasite or virus in culture
How it was run: as §1

MRSA = MRSA in 50% human serum / 50% MHB
Protocol: The compounds, along with standard antibiotics were serially diluted twofold across the wells of 96-well non-binding surface (NBS) polystyrene plates (Corning 3641). […] Standards ranged from 64 to 0.03 µg mL^−1 and compounds from 8 to 0.003 µg mL^−1 with final assay volumes of 100 µL per well. Gram-positive bacteria were cultured in Mueller Hinton broth (MHB) (Bactolaboratories, Cat. no. 211443) at 37 °C overnight. A sample of each culture was then diluted 40-fold in fresh MHB and incubated at 37 °C for 2–3 h. […] All the plates were covered and incubated at 37 °C for 24 h. MICs were the lowest concentration showing no visible growth.
The compounds, along with standard antibiotics, tested in BMD-MIC assay as above, in the presence of a mixture of 50% human serum (Sigma-Aldrich) and 50% MHB.

Cytotoxicity MTT assay [5] = format: cell-based, human; settings: human
Cytotoxicity MTT assay [6] = format: cell-based, human; settings: human; remark: listed apart in the source
How it was run: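 HepG2 and HEK293 cells, 1.5 × 10^4 per well in DMEM with 1% FBS, were allowed to attach for 24 h, then exposed 24 h at 37 °C to compounds at 100 µM to 0.046 µM in threefold steps. MTT (0.4 mg mL^−1) was added for 2 h, and formazan in DMSO was read at 570 nm. Viability is given as percent of control, corrected for a positive control.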

[7] = 37 °C, 20 µM
Haemolysis assay = format: cell-based; settings: human, whole blood
Protocol: Haemolytic activity was measured as previously described with slight modifications, [45]. Fresh human venal blood was collected from healthy volunteers and pretreated with the anticoagulant sodium citrate. Serial twofold dilutions of each antibiotic, dissolved in 0.9% NaCl solution, were added to fresh human whole blood (50% final, vol:vol) to the final volume of 80 μL and incubated at 37 °C for 3 h on a horizontal shaker at 200 rpm. For negative and positive controls, human whole blood in 0.9% NaCl solution (A blank) and in sdH2O (A water) were used, respectively. After incubation, both test and A blank were mixed with 1 mL 0.9% NaCl solution, or sdH2O for the complete […] A water. After centrifugation of samples at 2500 rpm (700 × g) for 5 min, the release of haemoglobin was monitored by measuring the absorbance (A sample) of the supernatant at 540 nm using BMG Labtech PolarStar Omega multimode reader. The percentage of haemolysis was calculated according to the equation: %haemolysis=Asample-Ablank∕Awater-Ablank×100

[8] = tested on: Bacillus subtilis ATCC 6633; assay: microbe, parasite or virus in culture; format: cell-based; settings: for Ac2Kaa concentration required to neutralise MIC activity / MIC: ATCC 6633, 48 h
Protocol: All compounds were dissolved in H2O. Bacillus subtilis ATCC® 6633™ NRS-231 was cultured in MHB at 37 °C for 48 h. A sample of each culture was then diluted 40-fold in fresh MHB and incubated at 37 °C for 18 h. Compounds were added to each row of 96-well NBS plates (NBS, Corning 3641), in duplicate. The tripeptide N,N΄-diacetyl-L-Lys-D-Ala-D-Ala was serially diluted twofold across the compound-containing wells from 6400 to 3 µg mL^−1. To this the resultant mid-log phase cultures were diluted to the final concentration of 5 × 10^5 CFU mL^−1, then added to wells of the compound-containing plates. All the plates were covered and incubated at 37 °C for 24 h.

in vitro = settings: human, 50% human plasma (pooled, sodium heparin) in PBS, pH 7.4
[9] = Critical micelle concentration assay; format: physicochemical; settings: 0.2 M NaCl, DPH
Protocol: CMCs were determined as previously described[46] with a higher throughput modification. Briefly, a cascade dilution of each antibiotic was performed in a low binding polypropylene V-bottom shaped 96-well plates in the presence of 0.2 M NaCl solution across 12 concentrations ranging from 1000 to 0.1 μM, except the control melittin (100 to 0.01 μM). An identical cascade dilution was performed for the neutral detergent Triton X-100 and the anionic detergent sodium dodecyl sulphate (SDS) starting from 0.1% down to 0.00001% (vol:vol for Triton X-100 and wt:vol for SDS). An aliquot of […] (DPH) in DMSO was added in each well to yield the final DPH concentration of 5 μM. The reaction mixtures were mixed for 30 s and transferred in horizontal triplicate (25 μL per well) into a black falcon 384-well plate. The 384-well plate was then sealed, wrapped up in aluminium foil and incubated for 30 min at room temperature. The fluorescence intensity was monitored in real time using a BMG Labtech PolarStar Omega multimode reader fitted with 360-10 and 430-10 excitation and emission filters respectively, at an excitation wavelength of 360 nm and an emission wavelength of 430 nm.

Molecule	MIC +50% HS (MRSA)	% compound remaining after incubation in 50% human plasma, 0h [7]	MIC MRSA ([1]; ATCC 43300, 24 h)	MIC VRE ([2]; ATCC 51559)	MIC VISA ([3]; Vancomycin-intermediate NRS1)	MIC MDR S.P. ([4]; ATCC 700677)	CC50 at 24 h (Cytotoxicity MTT assay [5])	Ac2Kaa concentration required to neutralise MIC activity [8]	MIC [8]	remaining at 1 h, 20 µM (in vitro)	remaining at 6 h, 20 µM (in vitro)	remaining at 24 h, 20 µM (in vitro)	CC50 at 24 h (Cytotoxicity MTT assay [6])	also measured
CCCCCCCCCCCCCC(=O)NCC(=O)N[C@@H](CO)C(=O)N[C@@H](CO)C(=O)N[C@@H](CCCCN)C(=O)N[C@@H](CO)C(=O)N1CCC[C@H]1C(=O)N[C@@H](CO)C(=O)N[C@@H](CCCCN)C(=O)N[C@@H](CCCCN)C(=O)N[C@@H](CCCCN)C(=O)N[C@@H](CCCCN)C(=O)N[C@@H](CCCCN)C(=O)N[C@@H](CCCCN)C(=O)N1CCC[C@H]1C(=O)NCC(=O)N[C@@H](CC(=O)O)C(=O)N[C@@H](CSSCCNC(=O)[C@H]1NC(=O)[C@H]2NC(=O)[C@H](NC(=O)[C@@H]3NC(=O)[C@H](CC(N)=O)NC(=O)[C@H](NC(=O)[C@@H](CC(C)C)NC)[C@H](O)c4ccc(c(Cl)c4)Oc4cc3cc(c4O[C@@H]3O[C@H](CO)[C@@H](O)[C@H](O)[C@H]3O[C@H]3C[C@](C)(N)[C@H](O)[C@H](C)O3)Oc3ccc(cc3Cl)[C@H]2O)c2ccc(O)c(c2)-c2c(O)cc(O)cc21)C(N)=O [Compound 8]	>8 µg/mL	–	–	–	–	–	–	–	–	–	–	–	–	MIC MRSA ([1]; S. aureus ATCC 43300, NBS plates, MHB, 24 h, substance alone): 0.5 µg/mL (≈ 0.143 µM); MIC VRE ([2]; E. faecium MDR VanA ATCC 51559, substance alone): 0.125 µg/mL (≈ 0.0357 µM); MIC VISA ([3]; S. aureus NRS1): 4 µg/mL (≈ 1.14 µM); MIC MDR S.P. ([4]; S. pneumoniae ATCC 700677): 0.5 µg/mL (≈ 0.143 µM); CC50 at 24 h (Cytotoxicity MTT assay [5]; 24 h, MTT, 1% FBS, read-out: Cytotoxicity CC50 HepG2): 10 µM; CC50 at 24 h (Cytotoxicity MTT assay [6]; 24 h, MTT, 1% FBS, read-out: Cytotoxicity CC50 HEK293): 22 µM
CCCCCCCCCCCCCC(=O)NCC(=O)N[C@@H](CO)C(=O)N[C@@H](CCCCN)C(=O)N[C@@H](CCCCN)C(=O)N[C@@H](CCCCN)C(=O)N[C@@H](CSSCCNC(=O)[C@H]1NC(=O)[C@H]2NC(=O)[C@H](NC(=O)[C@@H]3NC(=O)[C@H](CC(N)=O)NC(=O)[C@H](NC(=O)[C@@H](CC(C)C)NC)[C@H](O)c4ccc(c(Cl)c4)Oc4cc3cc(c4O[C@@H]3O[C@H](CO)[C@@H](O)[C@H](O)[C@H]3O[C@H]3C[C@](C)(N)[C@H](O)[C@H](C)O3)Oc3ccc(cc3Cl)[C@H]2O)c2ccc(O)c(c2)-c2c(O)cc(O)cc21)C(=O)O [Compound 14]	–	100%	<0.003 µg/mL	0.09 µg/mL (≈ 0.038 µM)	<0.003 µg/mL	<0.003 µg/mL	4 µM	> 3200 µg/mL	≤ 0.004 µg/mL	119%	82%	18%	11 µM	hemolysis at 3 h (Haemolysis assay; 100 µg mL-1): 0.4%; hemolysis at 3 h (Haemolysis assay; 1600 µg mL-1): 6.4%
CN[C@H](CC(C)C)C(=O)N[C@H]1C(=O)N[C@@H](CC(N)=O)C(=O)N[C@H]2C(=O)N[C@H]3C(=O)N[C@H](C(=O)N[C@H](C(=O)NCCCC[C@H](NC(=O)[C@H](CCCCN)NC(=O)[C@H](CCCCN)NC(=O)[C@H](CCCCNC(=O)c4ccc(Oc5ccccc5)cc4)NC(=O)c4ccc(Oc5ccccc5)cc4)C(=O)O)c4cc(O)cc(O)c4-c4cc3ccc4O)[C@H](O)c3ccc(c(Cl)c3)Oc3cc2cc(c3O[C@@H]2O[C@H](CO)[C@@H](O)[C@H](O)[C@H]2O[C@H]2C[C@](C)(N)[C@H](O)[C@H](C)O2)Oc2ccc(cc2Cl)[C@H]1O [Compound 23, POP2K-KK-K(Vancomycin)-OH]	–	100%	<0.003 µg/mL	4 µg/mL (≈ 1.7 µM)	0.5 µg/mL (≈ 0.212 µM)	<0.003 µg/mL	41 µM	200 µg/mL	≤ 0.004 µg/mL	107%	103%	99%	47 µM	critical micelle concentration (CMC) [9]: exceed 100 µM; Molar excess of Ac2Kaa ligand required to antagonise antibacterial activity ([8]; [ligand]/[antibiotic], B. subtilis ATCC 6633, 24 h): 15,102
POB2K-K-Dap-K(Vancomycin)-NHMe [Compound 27]	0.25 µg/mL and 0.375 µg/mL	–	–	–	–	–	–	–	–	–	–	–	–	–
